# Measurements reported in US20090181981A1, “CRYSTALLINE (R)-2-(4-CYCLOPROPANESULPHONYL-PHENYL)-N-PYRAZIN-2-YL-3-(TETRAHYDROPYRAN-4-YL)-PROPIONAMIDE” (priority 2008, published 2009).
# Assays:
# [1] = Hygroscopicity and storage at ambient temperature; assay type: physicochemical
# Protocol: (§1) Glucokinase is important in regulation of plasma glucose levels. It is thought that GK activators increase a body's sensitivity to glucose. Consequently, GK activators are effective in the treatment of hyperglycemia, insulin resistance, and diabetes, particularly in type II diabetes. […] (WO2004/072031) However, amorphous CPTP is not suitable for pharmaceutically elegant drug formulation.
# (§2) Crystalline CPTP has an onset of melting as measured by differential scanning calorimetry of 156° C., which renders it acceptable for standard industrial processes such as milling. […]
# [2] = Glass transition temperature / thermal stability of the solid; assay type: physicochemical; conditions: as evidenced by low glass transition temperature
# Description: as §1
# [3] = target: T1, Glucokinase (GK) (Homo sapiens, UniProt P35557); conditions: WO2004/072031; cited from earlier work
# T1 sequence (P35557 1-465): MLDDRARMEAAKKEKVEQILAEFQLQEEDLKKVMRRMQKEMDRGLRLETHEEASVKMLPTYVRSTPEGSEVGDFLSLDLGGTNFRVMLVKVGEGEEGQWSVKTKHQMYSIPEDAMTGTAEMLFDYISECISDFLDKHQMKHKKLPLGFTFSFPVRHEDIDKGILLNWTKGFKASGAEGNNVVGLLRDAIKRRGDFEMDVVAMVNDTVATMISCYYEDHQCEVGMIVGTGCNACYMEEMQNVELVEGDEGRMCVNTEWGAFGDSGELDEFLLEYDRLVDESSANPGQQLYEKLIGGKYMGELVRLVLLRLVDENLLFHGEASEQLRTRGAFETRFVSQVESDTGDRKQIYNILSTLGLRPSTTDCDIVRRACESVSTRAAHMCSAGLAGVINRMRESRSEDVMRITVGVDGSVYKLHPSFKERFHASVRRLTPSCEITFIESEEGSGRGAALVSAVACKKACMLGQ
# [4] = system: Glucokinase (GK); conditions: WO2004/072031; cited from earlier work
# [5] = pKa by photometric titration; assay type: physicochemical; conditions: determined by photometric titration
# Description: Salt formation was also extensively investigated. However, formation of isolable CPTP salts is hampered by the low pK (pKa1=0.17, determined by photometric titration) of CPTP.
# [6] = Crystalline CPTP stability summary (storage at controlled temperature and relative humidity); assay type: physicochemical; conditions: for Chiral Purity: chiral HPLC area percent; for Achiral Purity: total impurities by achiral HPLC
# Protocol: as §2
# [7] = 25° C. 60% relative humidity, 1 month
# [8] = 25° C. 60% relative humidity, 3 months
# [9] = 25° C. 60% relative humidity, Initial
# [10] = 40° C. 60% relative humidity, 1 Month
# [11] = 40° C. 60% relative humidity, 3 Months
# [12] = 40° C. 60% relative humidity, Initial
structure (smiles),measurement,setting,value
"O=C(Nc1cnccn1)[C@H](CC1CCOCC1)c1ccc(S(=O)(=O)C2CC2)cc1 [Amorphous CPTP, R-2-(4-cyclopropanesulfonyl-phenyl)-N-pyrazin-2-yl-3-(tetrahydropyran-4-yl)-propionamide]",hygroscopicity,[1],is hygroscopic
same,thermal stability,[2],limited thermal stability
same,activity in in-vitro GK assay,[3],active
same,activity in in-vivo GK assay,[4],active
"O=C(Nc1cnccn1)[C@H](CC1CCOCC1)c1ccc(S(=O)(=O)C2CC2)cc1 [CPTP, R-2-(4-cyclopropanesulfonyl-phenyl)-N-pyrazin-2-yl-3-(tetrahydropyran-4-yl)-propionamide]",pKa1,[5],0.17
"O=C(Nc1cnccn1)[C@H](CC1CCOCC1)c1ccc(S(=O)(=O)C2CC2)cc1 [Crystalline CPTP, R-2-(4-cyclopropanesulphonyl-phenyl)-N-pyrazin-2-yl-3-(tetrahydropyran-4-yl)-propionamide]",degradation on storage,[1]; stored at ambient temperature,minor or no degradation
same,hygroscopicity / water uptake,[1]; stored at ambient temperature,remains anhydrous and is not hygroscopic
same,Appearance,[6]; [7],White
same,Assay,[6]; [7],99.9 % w/w
same,Total Impurities,[6]; [7],0.18%
same,Water,[6]; [7],<0.10 % w/w
same,Appearance,[6]; [8],White
same,Assay,[6]; [8],99.6 % w/w
same,Total Impurities,[6]; [8],0.23%
same,Water,[6]; [8],<0.01 % w/w
same,Appearance,[6]; [9],White
same,Assay,[6]; [9],100.3 % w/w
same,Total Impurities,[6]; [9],0.25%
same,Water,[6]; [9],<0.07 % w/w
same,Appearance,[6]; [10],White
same,Assay,[6]; [10],100.1 % w/w
same,Total Impurities,[6]; [10],0.2%
same,Water,[6]; [10],<0.10 % w/w
same,Appearance,[6]; [11],White
same,Assay,[6]; [11],99.3 % w/w
same,Total Impurities,[6]; [11],0.25%
same,Water,[6]; [11],<0.01 % w/w
same,Appearance,[6]; [12],White
same,Assay,[6]; [12],100.3 % w/w
same,Total Impurities,[6]; [12],0.25%
same,Water,[6]; [12],<0.07 % w/w
same,Chiral Purity,[6]; [7],100 % a/a
same,Chiral Purity,[6]; [8],100 % a/a
same,Chiral Purity,[6]; [9],100 % a/a
same,Chiral Purity,[6]; [10],100 % a/a
same,Chiral Purity,[6]; [11],100 % a/a
same,Chiral Purity,[6]; [12],100 % a/a
same,Achiral Purity,[6]; [7],0.18 % a/a
same,Achiral Purity,[6]; [8],0.23 % a/a
same,Achiral Purity,[6]; [9],0.25 % a/a
same,Achiral Purity,[6]; [10],0.20 % a/a
same,Achiral Purity,[6]; [11],0.25 % a/a
same,Achiral Purity,[6]; [12],0.25 % a/a
